Molecular target: T1, human PAR-2 (hPAR-2) receptor (Homo sapiens, UniProt P55085)
T1 construct: expressed in HEK-293 cells in an endogenous manner; endogenous in cells; host or cells: HEK-293
T1 sequence (P55085 26-397): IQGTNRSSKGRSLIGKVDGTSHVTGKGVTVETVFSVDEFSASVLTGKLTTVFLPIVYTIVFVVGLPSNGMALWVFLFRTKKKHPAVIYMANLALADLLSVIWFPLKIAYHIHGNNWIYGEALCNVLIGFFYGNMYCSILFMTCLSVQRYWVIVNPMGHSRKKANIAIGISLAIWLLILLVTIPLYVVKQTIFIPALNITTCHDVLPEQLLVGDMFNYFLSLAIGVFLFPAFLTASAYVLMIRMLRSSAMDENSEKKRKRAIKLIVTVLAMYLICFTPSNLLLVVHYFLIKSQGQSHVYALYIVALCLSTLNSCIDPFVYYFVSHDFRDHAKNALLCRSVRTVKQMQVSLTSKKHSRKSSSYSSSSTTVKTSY
Experiment: In vitro human PAR-2 functional antagonist activity using calcium assays
Format: cell-based
Details: hPAR-2 endogenously expressed in HEK-293 cells; stimulated by 2-Furoyl-LIGRLO-NH2 peptide; Fluo4AM intracellular calcium, FLIPR Tetra
Protocol: Example 283: In Vitro Human PAR-2 Functional Antagonist Activity Using Calcium Assays
Examples of the present invention were tested successively for their agonist and antagonist activities on human PAR-2 (hPAR-2) receptor expressed in HEK-293 cells in an endogenous manner. Compounds exert agonist activity if, by themselves in absence of the 2-Furoyl-LIGRLO-NH2 peptide (selective hPAR-2 agonist), they activate PAR-2; they exert antagonist activity if they decrease the action of the 2-Furoyl-LIGRLO-NH2 peptide on the receptor. The assay used to determine compound activity is based on calcium measurement.
Cell Culture: HEK-293 cells were maintained in Dulbecco's Modified Eagle's Medium supplemented with 10% Foetal Calf Serum, 1% Penicillin/Streptomycin at 37° C./5% CO2. Flasks for tests (F75) are seeded with 6e+06 cells 24 h before the experiment at 37° C./5% CO2.
Calcium assay: Receptor activity was detected by changes in intracellular calcium measured using the fluorescent Ca^2+ sensitive dye, Fluo4AM (Molecular Probes).
The day of the assay, medium was replaced by assay buffer (HBSS 1× (Gibco 14175-053), Hepes 20 mM, MgSO4-7H2O 1 mM, Na2CO3 3.3 mM, CaCl2—2H2O 2.6 mM, 0.5% bovine serum albumin (BSA), Probenecid 2.5 mM, 0.1 mg/mL Pluronic Acid) and complemented with 1 μM Fluo4AM and cells were incubated during 1:30 h at 37° C.
Cells were then detached, resuspended in assay buffer and seeded in 384 wells, transparent-flat bottom black walled plates (2e+04 cells per well). Plates were incubated at +22° C. for 20 min. Compounds stock solutions were prepared in 100% DMSO and dilutions in test buffer were carried out in polypropylene plates with a digital dispenser (D300e, Tecan). Compounds were added to the cells and intracellular Ca^2+ measurements were collected at the same time on FLIPR Tetra® (Molecular Devices) with specific filters (Exc: 470-495 nm/Em: 515-575 nm).
Agonist and antagonist activities of compounds were consecutively evaluated on the same cell plate. Agonist activity was first measured after 10 min incubation with the compound alone. Then, cells were stimulated by an […] of the 2-Furoyl-LIGRLO-NH2 peptide and fluorescence was recorded for an additional 5 min. EC50 of the 2-Furoyl-LIGRLO-NH2 peptide was the concentration giving 80% of the maximal 2-Furoyl-LIGRLO-NH2 response. Agonist activities are evaluated in comparison to basal signals evoked by assay buffer or maximal 2-Furoyl-LIGRLO-NH2 response. […] Antagonist activities are evaluated in comparison to basal signals evoked by assay buffer or EC50 of 2-Furoyl-LIGRLO-NH2 alone.

SMILES | IC50
CC1(C)CN(c2ccc(Cl)c(F)c2)c2ccc(C(=O)N3[C@@H]4CC[C@H]3CC(CC(=O)O)C4)nc21 (mixture of isomers) [Example 130, 2-((1R,5S)-8-(1-(4-chloro-3-fluorophenyl)-3,3-dimethyl-2,3-dihydro-1H-pyrrolo[3,2-b]pyridine-5-carbonyl)-8-azabicyclo[3.2.1]octan-3-yl)acetic acid] | 500 to 10000 nM
CC1(C)CN(c2ccc(Cl)c(F)c2)c2ccc(C(=O)N3CC[C@H](c4ccccn4)[C@H](C(=O)O)C3)nc21 (relative stereo) [Example 137, (cis)-1-(1-(4-chloro-3-fluorophenyl)-3,3-dimethyl-2,3-dihydro-1H-pyrrolo[3,2-b]pyridine-5-carbonyl)-4-(pyridin-2-yl)piperidine-3-carboxylic acid] | 500 to 10000 nM
Cc1cc(N2CCN(C(=O)c3ccc4c(n3)C3(CC(C)C3)CN4c3ccc(Cl)c(F)c3)C(C)(C)C2)nc(C)c1C(=O)O (single isomer, unassigned) [Example 156, 6-(4-(1′-(4-chloro-3-fluorophenyl)-3-methyl-1′,2′-dihydrospiro[cyclobutane-1,3′-pyrrolo[3,2-b]pyridine]-5′-carbonyl)-3,3-dimethylpiperazin-1-yl)-2,4-dimethylnicotinic acid] | < 500 nM
COC1CC2(C1)CN(c1ccc(Cl)c(F)c1)c1ccc(C(=O)N3CCN(c4cc(C)c(C(=O)O)c(C)n4)CC3(C)C)nc12 (single isomer, unassigned) [Example 199, 6-(4-(1′-(4-chloro-3-fluorophenyl)-3-methoxy-1′,2′-dihydrospiro[cyclobutane-1,3′-pyrrolo[3,2-b]pyridine]-5′-carbonyl)-3,3-dimethylpiperazin-1-yl)-2,4-dimethylnicotinic acid] | < 500 nM
CC1(C)C(=O)NCCN1C(=O)c1ccc2c(n1)C1(CCCC1)C(=O)N2c1ccc(Cl)c(F)c1 [Example 2, 1′-(4-chloro-3-fluorophenyl)-5′-(2,2-dimethyl-3-oxopiperazine-1-carbonyl)spiro[cyclopentane-1,3′-pyrrolo[3,2-b]pyridin]-2′(1′H)-one] | 500 to 10000 nM
CC1(C)CN(C(=O)c2ccc3c(n2)C2(CCCC2)CN3c2ccc(Cl)c(F)c2)CCC1C(=O)O (stereo not shown) [Example 6, 1-(1′-(4-chloro-3-fluorophenyl)-1′,2′-dihydrospiro[cyclopentane-1,3′-pyrrolo[3,2-b]pyridine]-5′-carbonyl)-3,3-dimethylpiperidine-4-carboxylic acid] | 500 to 10000 nM
Cc1cc(N2CCN(C(=O)c3ccc4c(n3)C3(CCCC3)CN4c3ccc(Cl)c(F)c3)C(C)(C)C2)nc(C)c1C(=O)O [Example 8, 6-(4-(1′-(4-chloro-3-fluorophenyl)-1′,2′-dihydrospiro[cyclopentane-1,3′-pyrrolo[3,2-b]pyridine]-5′-carbonyl)-3,3-dimethylpiperazin-1-yl)-2,4-dimethylnicotinic acid] | < 500 nM
CC1(C)C(=O)NCCN1C(=O)c1ccc2c(n1)C1(CCCC1)CN2c1ccccc1Cl [Example 10, 4-(1′-(2-chlorophenyl)-1′,2′-dihydrospiro[cyclopentane-1,3′-pyrrolo[3,2-b]pyridine]-5′-carbonyl)-3,3-dimethylpiperazin-2-one] | 500 to 10000 nM
Cc1cc(N2CCN(C(=O)c3ccc4c(n3)C(C)(C)CN4c3ccc(F)c(F)c3)C(C)(C)C2)nc(C)c1C(=O)O [Example 14, 6-(4-(1-(3,4-difluorophenyl)-3,3-dimethyl-2,3-dihydro-1H-pyrrolo[3,2-b]pyridine-5-carbonyl)-3,3-dimethylpiperazin-1-yl)-2,4-dimethylnicotinic acid] | < 500 nM
CC1(C)CN(c2ccc(F)cc2)c2ccc(C(=O)N3CCNC(=O)C3(C)C)nc21 [Example 15, 4-(1-(4-fluorophenyl)-3,3-dimethyl-2,3-dihydro-1H-pyrrolo[3,2-b]pyridine-5-carbonyl)-3,3-dimethylpiperazin-2-one] | < 500 nM
CC1(C)CN(c2ccc(Cl)c(F)c2)c2ccc(C(=O)N3CCNC(=O)C3(C)C)nc21 [Example 18, 4-(1-(4-chloro-3-fluorophenyl)-3,3-dimethyl-2,3-dihydro-1H-pyrrolo[3,2-b]pyridine-5-carbonyl)-3,3-dimethylpiperazin-2-one] | < 500 nM

Now from value to molecule:

IC50 | SMILES
< 500 nM | CC1(C)C(=O)NCCN1C(=O)c1ccc2c(n1)[C@]1(C)CCO[C@@H]1N2c1ccc(Cl)c(F)c1 (racemic) [Example 61, cis-4-(8-(4-chloro-3-fluorophenyl)-3a-methyl-3,3a,8,8a-tetrahydro-2H-furo[3′,2′:4,5]pyrrolo[3,2-b]pyridine-5-carbonyl)-3,3-dimethylpiperazin-2-one]
500 to 10000 nM | CC1(C)CN(c2ccc(Cl)c(F)c2)c2ccc(C(=O)N3CC[C@@H](c4ccccn4)[C@H](C(=O)O)C3)nc21 (relative stereo) [Example 138, (trans)-1-(1-(4-chloro-3-fluorophenyl)-3,3-dimethyl-2,3-dihydro-1H-pyrrolo[3,2-b]pyridine-5-carbonyl)-4-(pyridin-2-yl)piperidine-3-carboxylic acid]
< 500 nM | CC1(C)C(=O)NCCN1C(=O)c1ccc2c(n1)[C@@]1(C)CCO[C@H]1N2c1ccc(Cl)c(F)c1 (single isomer, unassigned) [Example 62]
500 to 10000 nM | CC1(C)C(=O)NCCN1C(=O)c1ccc2c(n1)[C@]1(C)CCO[C@@H]1N2c1ccc(Cl)c(F)c1 (single isomer, unassigned) [Example 63]
500 to 10000 nM | CC1(C)C(=O)NCCN1C(=O)c1ccc2c(n1)C1(CCOCC1)C(=O)N2c1ccc(Cl)c(F)c1 [Example 1, 1′-(4-chloro-3-fluorophenyl)-5′-(2,2-dimethyl-3-oxopiperazine-1-carbonyl)-2,3,5,6-tetrahydrospiro[pyran-4,3′-pyrrolo[3,2-b]pyridin]-2′(1′H)-one]
< 500 nM | CC1(C)C(=O)NCCN1C(=O)c1ccc2c(n1)C1(CCCC1)CN2c1ccc(Cl)c(F)c1 [Example 3, 4-(1′-(4-chloro-3-fluorophenyl)-1′,2′-dihydrospiro[cyclopentane-1,3′-pyrrolo[3,2-b]pyridine]-5′-carbonyl)-3,3-dimethylpiperazin-2-one]
< 500 nM | O=C1NC(=O)C2(CCN(C(=O)c3ccc4c(n3)C3(CCCC3)CN4c3ccc(Cl)c(F)c3)CC2)N1 [Example 4, 8-(1′-(4-chloro-3-fluorophenyl)-1′,2′-dihydrospiro[cyclopentane-1,3′-pyrrolo[3,2-b]pyridine]-5′-carbonyl)-1,3,8-triazaspiro[4.5]decane-2,4-dione]
< 500 nM | CC1(C)C(=O)NCCN1C(=O)c1ccc2c(n1)C1(CCCC1)CN2c1cccc(Cl)c1 [Example 9, 4-(1′-(3-chlorophenyl)-1′,2′-dihydrospiro[cyclopentane-1,3′-pyrrolo[3,2-b]pyridine]-5′-carbonyl)-3,3-dimethylpiperazin-2-one]
500 to 10000 nM | CC1(C)CN(c2ccsc2)c2ccc(C(=O)N3CCNC(=O)C3(C)C)nc21 [Example 11, 4-(3,3-dimethyl-1-(thiophen-3-yl)-2,3-dihydro-1H-pyrrolo[3,2-b]pyridine-5-carbonyl)-3,3-dimethylpiperazin-2-one]
< 500 nM | CC1(C)CN(c2ccc(F)c(F)c2)c2ccc(C(=O)N3CCNC(=O)C3(C)C)nc21 [Example 12, 4-(1-(3,4-difluorophenyl)-3,3-dimethyl-2,3-dihydro-1H-pyrrolo[3,2-b]pyridine-5-carbonyl)-3,3-dimethylpiperazin-2-one]
< 500 nM | Cc1cc(N2CCN(C(=O)c3ccc4c(n3)C(C)(C)CN4c3cccc(F)c3)C(C)(C)C2)nc(C)c1C(=O)O [Example 17, 6-(4-(1-(3-fluorophenyl)-3,3-dimethyl-2,3-dihydro-1H-pyrrolo[3,2-b]pyridine-5-carbonyl)-3,3-dimethylpiperazin-1-yl)-2,4-dimethylnicotinic acid]
